In test [1] the target is T1, cyclin H-Cdk7 (Homo sapiens, UniProt P50613).
T1 construct: made in house; host or cells: insect cell Sf9 (baculovirus)
Description: Cdk7 inhibitory action: cyclin H-Cdk7 kinase activity. Particulars: cyclin H-Cdk7, 50 μM ATP. The test is classed as biochemical. From the text:
The cDNA of Cdk7, and the cDNA of a fusion protein of cyclin H, an activating factor of Cdk7, and glutathione S-transferase, were integrated into a baculovirus expression vector to prepare a recombinant baculovirus. This was co-transfected into insect cell Sf9 to express an active complex of the cyclin H/glutathione S-transferase fusion protein-Cdk7 at a high level. The cells were recovered and solubilized, then the active complex was adsorbed onto Glutathione Sepharose, and a cyclin H-Cdk7 active complex was recovered using Precision Protease.
For the measurement of the activity of cyclin H-Cdk7, a synthetic peptide ([…] was used as the substrate.
(§1) The reaction was performed by partially modifying the method of Kitagawa et al. [Oncogene, Vol. 7, 1067-1074 (1992)]. The volume of the reaction solution was 21.1 μL, and to the R buffer, purified cyclin H-Cdk7, 25 μM of the substrate peptide, 50 μM of non-labeled adenosine triphosphate (ATP), and 1 μCi of [γ-33P]-labeled ATP (2000 to 4000 Ci/mmole) were added to react at 30° C. for 45 minutes. Then, 10 μL of 350 mM phosphate buffer was added to the reaction system to terminate the reaction. The substrate peptide was adsorbed onto P81 paper filter on a 96-well plate, and then washed several times with 75 mM phosphate buffer. The radioactivity of the substrate peptide was measured with a liquid scintillation counter.
(§2) Addition of the compound according to the invention to the reaction system was carried out by first preparing a dilution series of solutions of the compound in dimethylsulfoxide (DMSO), and adding 1.1 μL of the dilutions. A control was provided by adding 1.1 μL of DMSO to the reaction system.
A representative compound of the compounds according to the invention was selected, and the IC50 value of this compound for the cyclin H-Cdk7 activity was determined.

For test [2], the system named is EOL-1. Description: Inhibitory action against cell proliferation (WST-8), EOL-1. The conditions noted are these: Homo sapiens, EOL1, 72 h, EOL-1 cells, 3 days culture, read-out: concentration for 50% inhibition of cell proliferation (IC50), EOL-1. It counts as cell-based. Here is the method:
(§3) Clinically isolated cancer cell lines EOL-1, KU812 and JURKAT were cultured in RPMI1640 medium containing 10% fetal calf serum at 37° C. in the presence of 5% CO2 under an atmosphere of saturated steam.
(§4) The inhibitory action against cell proliferation was measured by modifying the method of Skehan et al. [J. Natl. Cancer Inst., Vo. 82, 1107-1112 (1990)] according to the method of Ishiyama et al. [Talanta, Vol. 44, 1299 (1997)]. 100 μL each of cell culture medium containing 1×10^3 live cells of EOL-1, KU812 and JURKAT, respectively, was dispensed into each well of a 96-well cell culture dish, and the cells were cultured overnight. On the next day, a dilution series of solutions in DMSO was prepared from a DMSO solution of the compound of each Example. Then, the dilution series of solutions or DMSO only as a control for no drug addition were separately added to the medium for cell culture. Finally, 100 μL each of the culture medium containing either the dilution series of solutions of the compounds or DMSO only, was added to the cells which had been cultured in a 96-well dish, and then the cells were further cultured for 3 days.
(§5) After adding 20 μL each of WST-8 (Kishida Chemical Co., Ltd.) to each well and culturing the cells for another 2 hours, the optical densities at 450 nm were measured against a reference wavelength of 650 nm, and were compared with the control group. […]

Test [3] relates to KU812. Description: Inhibitory action against cell proliferation (WST-8), KU812. The test is classed as cell-based. The conditions noted are these: Homo sapiens, 72 h, KU812 cells, 3 days culture, read-out: concentration for 50% inhibition of cell proliferation (IC50), KU812. Here is the method:
as §3, §4, §5

In test [4] the target is T2, cyclin D2-Cdk4 (Homo sapiens, UniProt P11802).
T2 construct: made in house; host or cells: insect cell Sf9 (baculovirus)
T2 sequence (P11802 whole entry): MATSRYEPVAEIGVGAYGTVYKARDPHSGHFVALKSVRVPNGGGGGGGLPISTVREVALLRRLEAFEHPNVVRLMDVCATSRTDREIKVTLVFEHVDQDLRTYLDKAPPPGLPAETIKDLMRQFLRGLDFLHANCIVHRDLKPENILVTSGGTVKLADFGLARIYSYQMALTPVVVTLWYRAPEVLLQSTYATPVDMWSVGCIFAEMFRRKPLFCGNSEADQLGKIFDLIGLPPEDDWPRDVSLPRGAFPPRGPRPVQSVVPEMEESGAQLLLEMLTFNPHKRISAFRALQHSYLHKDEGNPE
T2 sequence (P30279 whole entry partner): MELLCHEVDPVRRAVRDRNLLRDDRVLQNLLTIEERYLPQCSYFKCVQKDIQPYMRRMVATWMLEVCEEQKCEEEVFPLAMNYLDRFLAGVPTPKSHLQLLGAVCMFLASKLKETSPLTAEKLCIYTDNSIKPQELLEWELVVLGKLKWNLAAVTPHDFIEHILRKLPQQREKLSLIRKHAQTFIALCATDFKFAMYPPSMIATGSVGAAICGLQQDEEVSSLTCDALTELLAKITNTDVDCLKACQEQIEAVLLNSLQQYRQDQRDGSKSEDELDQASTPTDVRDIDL
The test is described as follows: Cdk4 inhibitory action: cyclin D2-Cdk4 kinase activity, 33P-ATP, RB peptide substrate. It counts as biochemical. The conditions noted are these: for K1/K4, selectivity for Cdk4 against Cdk1: IC50 of Cdk1 divided by IC50 of Cdk4; for K2/K4, selectivity for Cdk4 against Cdk2: IC50 of Cdk2 divided by IC50 of Cdk4; for K5/K4, selectivity for Cdk4 against Cdk5: IC50 of Cdk5 divided by IC50 of Cdk4; for K7/K4, selectivity for Cdk4 against Cdk7: IC50 of Cdk7 divided by IC50 of Cdk4; for K9/K4, selectivity for Cdk4 against Cdk9: IC50 of Cdk9 divided by IC50 of Cdk4.

The target in test [5] is T3, p35-Cdk5 (Homo sapiens, UniProt Q00535).
T3 construct: purchased PanVera Corp; host or cells: insect cell
T3 sequence (Q00535 whole entry): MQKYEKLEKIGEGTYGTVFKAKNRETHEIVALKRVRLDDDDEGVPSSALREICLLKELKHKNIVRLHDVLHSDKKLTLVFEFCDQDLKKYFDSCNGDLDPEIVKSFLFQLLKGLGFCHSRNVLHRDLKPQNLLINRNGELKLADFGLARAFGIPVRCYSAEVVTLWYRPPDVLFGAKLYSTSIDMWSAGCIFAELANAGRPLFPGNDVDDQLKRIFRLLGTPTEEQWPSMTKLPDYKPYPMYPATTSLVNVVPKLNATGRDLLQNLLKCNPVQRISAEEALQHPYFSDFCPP
T3 sequence (Q15078 whole entry partner): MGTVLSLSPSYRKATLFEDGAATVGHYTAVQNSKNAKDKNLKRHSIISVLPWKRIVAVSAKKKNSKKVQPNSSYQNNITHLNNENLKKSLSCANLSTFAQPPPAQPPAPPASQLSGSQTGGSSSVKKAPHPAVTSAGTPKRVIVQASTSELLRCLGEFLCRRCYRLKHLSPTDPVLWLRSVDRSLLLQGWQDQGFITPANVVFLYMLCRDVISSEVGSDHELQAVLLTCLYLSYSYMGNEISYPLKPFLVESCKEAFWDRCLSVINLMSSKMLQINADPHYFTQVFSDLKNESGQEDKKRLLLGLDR
Description: Cdk5 inhibitory action: p35-Cdk5 kinase activity. The conditions noted are these: p35-Cdk5, 50 μM ATP. It counts as biochemical. As for the experimental part: For the measurement of the activity of p35-Cdk5, a human-derived recombinant […] active complex, which was expressed in insect cell and purified, was purchased from PanVera Corp. A synthetic peptide (Ala-Lys-Ala-Lys-Lys-Thr-Pro-Lys-Lys-Ala-Lys-Lys) was used as the substrate.
as §1, with “p35-Cdk5, 0.01 mg/mL” for “H-Cdk7, 25 μM”, “[…])” for “Ci/mmole)”, “10” for “45”
as §2
A representative compound of the compounds according to the invention was selected, and the IC50 value of this compound for the p35-Cdk5 activity was determined.

The record followed here is patent US7709475B2, “Selective inhibitors against Cdk4 and Cdk6 having aminothiazole skeleton” (Banyu Pharmaceutical Co., Ltd., priority 2004, dated 2010).

pIC50: −log10 of the molar value.

T1 sequence (P50613 whole entry): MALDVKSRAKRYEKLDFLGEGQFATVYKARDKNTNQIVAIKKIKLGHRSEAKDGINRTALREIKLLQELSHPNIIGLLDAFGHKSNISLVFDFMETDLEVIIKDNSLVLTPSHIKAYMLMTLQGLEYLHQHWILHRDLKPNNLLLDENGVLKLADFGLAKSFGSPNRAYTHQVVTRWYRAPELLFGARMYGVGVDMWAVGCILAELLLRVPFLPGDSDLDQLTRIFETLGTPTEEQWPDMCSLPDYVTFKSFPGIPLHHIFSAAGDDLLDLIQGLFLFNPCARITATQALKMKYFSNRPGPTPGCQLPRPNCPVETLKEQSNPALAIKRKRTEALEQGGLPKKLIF
T1 sequence (P51946 whole entry partner): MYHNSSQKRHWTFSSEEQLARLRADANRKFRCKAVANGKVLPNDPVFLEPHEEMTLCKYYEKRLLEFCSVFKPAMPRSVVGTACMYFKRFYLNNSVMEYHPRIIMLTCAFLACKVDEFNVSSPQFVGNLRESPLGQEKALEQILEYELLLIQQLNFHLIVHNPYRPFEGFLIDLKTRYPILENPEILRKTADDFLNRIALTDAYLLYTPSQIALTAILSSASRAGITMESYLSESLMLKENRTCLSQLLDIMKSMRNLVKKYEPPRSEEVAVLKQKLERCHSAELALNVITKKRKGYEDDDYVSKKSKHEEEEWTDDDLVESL

`Cc1cc(-c2cnc(Nc3cnc(CN4CCN(C)CC4)cn3)s2)nc(OC2CCCCC2)n1` [Example 1, 5-[2-(cyclohexyloxy)-6-methyl-4-pyrimidinyl]-2-[5-(4-methyl-1-piperazinyl)methyl-2-pyrazinyl]amino-1,3-thiazole] showed a pIC50 in test [1] of 6.28. Also, in test [2], the pIC50 was 7.27. The pIC50 in test [3] is 6.82. In addition, in test [4], the “K1/K4, selectivity for Cdk4 against Cdk1” value is given as 65; the “K2/K4, selectivity for Cdk4 against Cdk2” value is reported as 185; the “K5/K4, selectivity for Cdk4 against Cdk5” value was determined as 326; the “K7/K4, selectivity for Cdk4 against Cdk7” value is 58. The “K9/K4, selectivity for Cdk4 against Cdk9” value in test [4] came out at 272.

The compound `Cc1cc(-c2cnc(Nc3cnc(CN4CCC(N(C)C)C4)cn3)s2)nc(OC2CCCCC2)n1` (centres unmarked) [Example 13, 5-[2-(cyclohexyloxy)-6-methyl-4-pyrimidinyl]-2-[5-(3-dimethylamino-1-pyrrolidinyl)methyl-2-pyrazinyl]amino-1,3-thiazole] showed a pIC50 in test [5] of 5.59. In addition, the pIC50 in test [1] was 6.43. Besides, in test [4], the “K1/K4, selectivity for Cdk4 against Cdk1” value is recorded as 103; the “K2/K4, selectivity for Cdk4 against Cdk2” value is listed as 142; the “K5/K4, selectivity for Cdk4 against Cdk5” value stood at 433; the “K7/K4, selectivity for Cdk4 against Cdk7” value worked out at 62. In addition, the “K9/K4, selectivity for Cdk4 against Cdk9” value in test [4] is 72.

`Cc1cc(-c2cnc(Nc3cnc(CN4CCN(C)CC4)cn3)s2)nc(NC2CCCCC2)n1` [Example 55, 5-[2-(cyclohexylamino)-6-methyl-4-pyrimidinyl]-2-[5-(4-methyl-1-piperazinyl)methyl-2-pyrazinyl]amino-1,3-thiazole]: in test [1], the pIC50 is 6.34.

On to `Cc1cc(-c2cnc(Nc3cnc(CN4CCCC4)cn3)s2)nc(SC2CCCCC2)n1` [Example 93, 5-[2-(cyclohexylthio)-6-methyl-4-pyrimidinyl]-2-[5-(1-pyrrolidinyl)methyl-2-pyrazinyl]amino-1,3-thiazole], for which the pIC50 in test [5] was 5.54; in test [1], 6.85.

In test [1], `Cc1cc(-c2cnc(Nc3cnc(CN4CCC(N(C)C)C4)cn3)s2)nc(SC2CCCCC2)n1` (centres unmarked) [Example 94, 5-[2-(cyclohexylthio)-6-methyl-4-pyrimidinyl]-2-[5-(3-dimethylamino-1-pyrrolidinyl)methyl-2-pyrazinyl]amino-1,3-thiazole] had a pIC50 of 7.04.

`Cc1cc(-c2cnc(Nc3cnc(CNC(C)C)cn3)s2)nc(SC2CCCCC2)n1` [Example 96, 5-[2-(cyclohexylthio)-6-methyl-4-pyrimidinyl]-2-[5-(isopropylamino)methyl-2-pyrazinyl]amino-1,3-thiazole] had a pIC50 in test [1] of 6.80.

Take `Cc1cc(-c2cnc(Nc3cnc(CNCCO)cn3)s2)nc(SC2CCCCC2)n1` [Example 99, 5-[2-(cyclohexylthio)-6-methyl-4-pyrimidinyl]-2-[5-(2-hydroxyethylamino)methyl-2-pyrazinyl]amino-1,3-thiazole]: the figures for the pIC50 in test [5] and in test [1] were 5.62 and 6.92, respectively.

On to `Cc1cc(-c2cnc(Nc3cnc(CN4CCN(C)CC4)cn3)s2)nc(Sc2ccccc2Cl)n1` [Example 109, 5-[2-(2-chlorophenylthio)-6-methyl-4-pyrimidinyl]-2-[5-(4-methyl-1-piperazinyl)methyl-2-pyrazinyl]amino-1,3-thiazole], for which the pIC50 in test [1] was 6.55.

For the compound `CC(=O)N1CCN(Cc2ccc(Nc3ncc(-c4cc(C)nc(OC5CCCCC5)n4)s3)nc2)CC1` [Example 125, 5-[2-(cyclohexyloxy)-6-methyl-4-pyrimidinyl]-2-[5-(4-acetyl-1-piperazinyl)methyl-2-pyridyl]amino-1,3-thiazole], the figures for the pIC50 in test [1], in test [2] and in test [3] were 6.43, 8.25 and 6.74, respectively.

In turn, `Cc1cc(-c2cnc(Nc3ccc(CN4CCC[C@H]4CO)cn3)s2)nc(NC2CCCCC2)n1` [Example 137, (2S)-5-[2-(cyclohexylamino)-6-methyl-4-pyrimidinyl]-2-[5-(2-hydroxymethyl-1-pyrrolidinyl)methyl-2-pyridyl]amino-1,3-thiazole] had a pIC50 in test [1] of 5.92. Moreover, in test [4], the “K1/K4, selectivity for Cdk4 against Cdk1” value was found to be 167; the “K2/K4, selectivity for Cdk4 against Cdk2” value came to 625; the “K5/K4, selectivity for Cdk4 against Cdk5” value amounted to 417; the “K7/K4, selectivity for Cdk4 against Cdk7” value is 167. For the same compound, in test [4], the “K9/K4, selectivity for Cdk4 against Cdk9” value turned out to be 153.
